Measured values as given in patent publication US20250230184A1, “COMPOUND, PHARMACEUTICAL COMPOSITION, KIT FOR CAPPED RNA TRANSCRIPT, AND METHOD FOR IN VITRO” (Industrial Technology Research Institute, priority 2023, published 2025).

How the values were obtained:
carrier RNA [1] = test: Capping efficiency evaluation (1) using anti-cap antibody; details: Anti-7-methylguanosine (m7G)-Cap mAb, compared with commercially available ARCA
Description: Nuclease-free water was added into the lyophilized carrier RNA to obtain an RNA stock solution (with a concentration of 2 μg/L). Next, the RNA stock solution with various cap analogs (Compound (3) and Jena-ARCA cap analog, with trade number #NU-855L, commercially available from Jena Bioscience) was heated individually at 80° C. for 2 minutes, and then cooled at 0° C. for 5 minutes. Next, the result was placed on a nitrocellulose membrane and exposed to UV illumination to obtain a crosslinked RNA sample.
Then, 2.5% skim milk solution was added to block the nitrocellulose membrane with crosslinked RNA sampleat room temperature for 30 minutes. Thereafter, the primary antibody (Anti-7-methylguanosine (m7G)-Cap mAb) was diluted with the 2.5% skim milk solution and incubated at room temperature for 1 hour. Next, the sample was washed three times with TBST buffer (10 minutes each time). The result was reacted with chemiluminescent reagent (Femto) for 1-3 minutes. Finally, an image analysis of the result was performed via a chemiluminescent imaging system (Fujifilm LAS 4000).

[2] = tested on: HEK293 (RIG-I+)-IFNβ-fLuc cells; test: Cell immunogenicity evaluation (luciferase reporter); type: cell-based; details: luciferase mRNA capped with the cap analog, 200 ng per well, 5 hours, compared with Jena-ARCA
Description: HEK293 (RIG-I^+)-IFNβ-fLuc cells were seeded at 1×10^4 cells per well in a 96-well culture plate and cultured for 24 hours for attachment. Each well was treated with transfection reagent (catalog #Lipofectamine MessengerMax, commercially available from Thermo Fisher, 0.15 μL per well) and samples (200 ng per well). The cells were incubated in a 37° C. incubator with 5% carbon dioxide for 5 hours. Next, 100 µL of signal-activating fluorescence detection reagent (One-Glo Luciferase) was added to each well and incubated at room temperature for 5 minutes to measure luciferase activity. Next, 180 μL of the reaction mixture was pipetted, and the fluorescence values were recorded using a microplate reader (GloMax Microplate Reader).

HEK293 cells = test: Transfection efficiency evaluation (luciferase activity); type: cell-based; details: luciferase mRNA capped with the cap analog, 50 ng per well, 5 hours, compared with Jena-ARCA
Description: Nuclease-free water was added to the lyophilized carrier RNA to obtain an RNA stock solution (with concentration of 2 μg/L). Next, deionized water (0.1 mL) and RNA stock solution (10 μL) were mixed with cap analogs (compound (3), compounds (25), (33) to (35), and Jena-ARCA capping analog (number #NU-855L, commercially available from Jena Bioscience)) individually to obtain the samples.
HEK293 cells were seeded at 4×10^4 cells per well in a 96-well culture plate and cultured for 24 hours for attachment. Next, each well was treated with transfection reagent (catalog #Lipofectamine MessengerMax, commercially available from Thermo Fisher, 0.3 μL per well) and samples (50 ng per well). The cells were incubated in a 37° C. incubator with 5% carbon dioxide for 5 hours. Subsequently, 100 μL of signal-activating fluorescence detection reagent (One-Glo Luciferase) was added to each well and incubated at room temperature for 5 minutes to measure luciferase activity. Then, 100 μL of the reaction mixture was pipetted and the fluorescence values were recorded using a microplate reader (GloMax Microplate Reader).

carrier RNA [3] = test: Capping efficiency evaluation (2) using IP-RP-UPLC (1); details: UV260
Description: Nuclease-free water was added into the lyophilized carrier RNA to obtain an RNA stock solution (with a concentration of 2 μg/L). Next, deionized water (0.1 mL) and RNA stock solution (10 μL) were mixed with cap analogs (compound (3) and Jena-ARCA cap analog (product number #NU-855L, commercially available from Jena Bioscience)) individually to obtain the samples.
Next, the sample (10 μL) was injected into a column to perform ion-pair reverse-phase ultra-performance liquid chromatography (IP-RP UPLC) using the solution gradient outlined in Table 6 (45 minutes). The absorbance at the UV260 wavelength was monitored. The column used was an oligonucleotide column (Acquity Premier Oligonucleotide C18, manufactured and sold by Waters Corp). A water-based buffer solution (triethylamine acetate buffer, pH 7.0, concentration 100 mM) was used as Solution A, and an acetonitrile (ACN)-based buffer solution (composed of Solution A and ACN in a 3:1 volume ratio) was used as Solution B.

T7 enzyme = T7 enzyme (Escherichia phage T7, UniProt P00573); test: Evaluation of mRNA yield by in vitro transcription (IVT) with cap analogs; type: biochemical; details: input DNA 5 μg
Description: mRNA was produced using in vitro transcription (IVT) technology with cap analogs of Compound (25), (26) and (33) to (35) of the disclosure, as well as the TriLink CleanCap cap analog (product number #N-7113). First, the DNA template plasmid required for IVT was prepared, followed by an enzymatic reaction using T7 enzyme to synthesize mRNA.

40-nt mRNAs = test: Capping efficiency evaluation (3) using IP-RP-UPLC, 40-nt mRNAs from IVT; type: biochemical; details: 40-nt mRNAs by IVT with T7 enzyme, UV 260 nm
Description: mRNA was produced using in vitro transcription (IVT) technology with cap analogs of Compound (25), (33) to (35) of the disclosure herein, as well as the TriLink CleanCap cap analog (product number #N-7113). The DNA template used in this process consisted of 40-nucleotide (nt) fragments, and mRNA was synthesized through an enzymatic reaction using T7 enzyme to produce 40-nt mRNAs.
Nuclease-free water was added to the lyophilized carrier RNA to obtain an RNA stock solution (with concentration of 2 μg/L). Deionized water (0.1 mL) and RNA stock solution (10 μL) were then mixed with the 40-nt mRNAs obtained by aforementioned cap analogs to obtain the samples.
Next, 10 μL of each sample was injected into a column and analyzed using ion-pair reversed-phase ultra-performance liquid chromatography (IP-RP UPLC) (45 minutes) according to the solution gradient listed in Table 7. The absorbance value of UV 260 nm was monitored, and the capping efficiency (%) was evaluated based on the obtained results, as shown in Table 8. The column used for the analysis was an oligonucleotide column (Acquity Premier Oligonucleotide C18, manufactured and sold by Waters Corp). A water-based buffer solution (triethylammonium acetate buffer, pH 7.0, concentration 100 mM) was used as Solution A, while an acetonitrile (ACN)-based buffer solution (a mixture of Solution A and acetonitrile in a 3:1 volume ratio) was used as Solution B.

Chain of T7 enzyme (P00573 whole entry): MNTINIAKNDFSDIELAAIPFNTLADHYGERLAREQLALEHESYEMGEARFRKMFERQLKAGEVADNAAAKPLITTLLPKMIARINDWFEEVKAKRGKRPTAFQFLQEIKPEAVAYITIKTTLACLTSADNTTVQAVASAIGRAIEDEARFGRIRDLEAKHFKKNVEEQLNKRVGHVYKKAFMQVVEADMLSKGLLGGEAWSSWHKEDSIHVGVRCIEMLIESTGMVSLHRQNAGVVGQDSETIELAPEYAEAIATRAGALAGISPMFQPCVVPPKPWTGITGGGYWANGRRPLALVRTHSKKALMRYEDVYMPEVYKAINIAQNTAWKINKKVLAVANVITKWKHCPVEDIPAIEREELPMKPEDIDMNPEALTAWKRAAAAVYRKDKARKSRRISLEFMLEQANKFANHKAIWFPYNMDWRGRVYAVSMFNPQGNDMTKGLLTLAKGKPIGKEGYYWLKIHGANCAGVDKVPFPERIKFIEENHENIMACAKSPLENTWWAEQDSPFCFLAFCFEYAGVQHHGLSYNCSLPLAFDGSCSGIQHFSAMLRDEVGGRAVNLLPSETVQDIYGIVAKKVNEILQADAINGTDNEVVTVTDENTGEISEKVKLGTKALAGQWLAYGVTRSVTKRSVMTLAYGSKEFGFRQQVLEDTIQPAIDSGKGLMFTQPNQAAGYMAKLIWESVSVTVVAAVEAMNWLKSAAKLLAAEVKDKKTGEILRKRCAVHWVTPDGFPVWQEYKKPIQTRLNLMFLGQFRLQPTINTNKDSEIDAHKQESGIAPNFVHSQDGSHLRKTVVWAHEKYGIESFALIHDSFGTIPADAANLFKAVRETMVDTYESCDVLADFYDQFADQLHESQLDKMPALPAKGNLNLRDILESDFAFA

Row | SMILES | capping capability (chemiluminescent image analysis) (carrier RNA [1]) | immune response (luciferase activity) [2] | nucleic acid translation and protein expression (luciferase activity) (HEK293 cells) | capping efficiency (carrier RNA [3]) | mRNA (T7 enzyme) [µg] | Capping efficiency (%) (40-nt mRNAs)
1 | COC1[C@@H]2OC[C@]1(COP(=O)(O)OP(=O)(O)OP(=O)(O)OC[C@H]1O[C@@H](n3cnc4c(=O)[nH]c(N)nc43)[C@@H](O)C1O)O[C@H]2n1c[n+](C)c2c(=O)[nH]c(N)nc21 (stereo partly shown) [Compound (3)] | comparable to that of commercially available ARCA | lower immune response | superior nucleic acid translation and protein expression | approximately 60.8% |  | 
2 | CO[C@@H]1C(O)[C@H](n2c[n+](C)c3c(=O)[nH]c(N)nc32)O[C@@H]1COP(=O)(O)OP(=O)(O)OP(=O)(O)OC[C@]12CN(C)[C@@H](C1OP(=O)(O)OC[C@H]1O[C@@H](n3cnc4c(=O)[nH]c(N)nc43)[C@@H](O)C1O)[C@H](n1cnc3c(N)ncnc31)O2 (stereo partly shown) [Compound (25)] |  |  | superior nucleic acid translation and protein expression |  | 167 | 71.3
3 | COC1[C@@H](COP(=O)(O)OP(=O)(O)OP(=O)(O)OC[C@]23CN(S(C)(=O)=O)[C@@H](C2OP(=O)(O)OC[C@H]2O[C@@H](n4cnc5c(=O)[nH]c(N)nc54)[C@@H](O)C2O)[C@H](n2cnc4c(N)ncnc42)O3)O[C@@H](n2c[n+](C)c3c(=O)[nH]c(N)nc32)[C@H]1O (stereo partly shown) [Compound (26)] |  |  |  |  | 95 | 
4 | CO[C@@H]1C2OC[C@]1(COP(=O)(O)OP(=O)(O)OP(=O)(O)OC[C@H]1O[C@@H](n3cnc4c(N)ncnc43)[C@@H](OC)C1OP(=O)(O)OC[C@H]1O[C@@H](n3cnc4c(=O)[nH]c(N)nc43)[C@@H](O)C1O)O[C@H]2n1c[n+](C)c2c(=O)[nH]c(N)nc21 (stereo partly shown) [Compound (33)] |  |  |  |  | 134 | 100
5 | CNc1ncnc2c1ncn2[C@@H]1O[C@H](COP(=O)(O)OP(=O)(O)OP(=O)(O)OC[C@@]23CN(S(C)(=O)=O)C([C@H](n4c[n+](C)c5c(=O)[nH]c(N)nc54)O2)[C@H]3OC)C(OP(=O)(O)OC[C@H]2O[C@@H](n3cnc4c(=O)[nH]c(N)nc43)[C@@H](O)C2O)[C@@H]1OC (stereo partly shown) [Compound (35)] |  |  |  |  | 138 | 81.4
6 | CO[C@H]1[C@@H](O)[C@H](n2c[n+](C)c3c(=O)[nH]c(N)nc32)O[C@@H]1COP(=O)(O)OP(=O)(O)OP(=O)(O)OC[C@H]1O[C@@H](n2cnc3c(=O)[nH]c(N)nc32)[C@H](O)[C@@H]1O [Jena-ARCA, reference compound] |  |  |  | approximately 63% |  | 
